Reference: ChEMBL document CHEMBL6083210, “Exploring apoptotic induction of malabaricone A in triple-negative breast cancer cells: an acylphenol phyto-entity isolated from the fruit rind of Myristica malabarica Lam” (RSC Med Chem, 2024)

Columns and labels:
Assay type in all cases: functional, cell-based
[1] = system: MCF-10A; test: Antiproliferative activity against human MCF-10A cells assessed as reduction in cell viability incubated for 24 hrs by MTT assay
[2] = system: MDA-MB-231; test: Antiproliferative activity against human MDA-MB-231 cells assessed as reduction in cell viability incubated for 24 hrs by MTT assay; details: MDA-MB-231, 24 h
[3] = system: SK-BR-3; test: Antiproliferative activity against human SK-BR-3 cells assessed as reduction in cell viability incubated for 24 hrs by MTT assay; details: SK-BR-3, 24 h

O=C(CCCCCCCCc1ccc2c(c1)OCO2)c1c(O)cccc1O gave an IC50 [1] of 82.6 µM, an IC50 [2] of 15.1 µM and an IC50 [3] of 9.3 µM.
